# Assay results published in patent US20230390386A1, “REPLICATION-DEFECTIVE VACCINES AND USES THEREOF” (priority 2020, published 2023).
# Columns and labels:
# [1] = test system: ToledoLuc strain of HCMV; experiment: ToledoLuc growth curve in MRC-5 cells after CM treatment of virus (bioluminescence); format: cell-based, human cytomegalovirus
# Description: ToledoLuc treatment with CM: The human cytomegalovirus (HCMV) strain ToledoLuc, which contains a luciferase expression cassette, was used in this study and well-known to those of skill in the art. Cells of the MRC-5 human diploid fibroblast line were seeded into 12-well plates. […] After 2 hours of treatment with CM, ToledoLuc viruses were washed 3 times with cDMEM and added to MRC-5 cells at an MOI of 0.05 in triplicate wells. The control includes the ToledoLuc treated with the PET vehicle in a similar way. The growth kinetics of ToledoLuc was determined by bioluminescence assay. The luciferase activity of ToledoLuc virus was measured every 24 hours using IVIS-50.
# In the present example, the effect of CM treatment on the HCMV was first examined using the modified ToledoLuc strain of HCMV. ToledoLuc was treated with different concentrations of CM for two hours at room temperature, washed to remove unbound CM and then allowed to grow in the MRCS cells.
# [2] = test system: AD169-GFP; experiment: AD169-GFP fluorescence microscopy in ARPE-19 cells after CM treatment of virus; format: cell-based, human cytomegalovirus
# Description: Fluorescence microscopy: The AD169-GFP viruses were incubated with 100 μM, 10 μM, 1.0 μM, and 0.1 μM of centanamycin as described above. After treatment, the AD169-GFP viruses were washed 3 times with the cDMEM and added to the ARPE-19 cells at an MOI of 0.05. The virus growth was analyzed every day by fluorescence microscopy. In a control experiment, the viruses were only treated with the PET vehicle.
# To understand the pathology of CM treated virus, a GFP-expressing human cytomegalovirus, AD169-GFP, was used with microscopic imaging to visually assess the ability of treated viruses to infect cell.
# [3] = test system: E. coli; experiment: CM treatment of E. coli, colony count on LB agar plates; format: cell-based; conditions: three hours at room temperature
# Description: CM treatment of E. coli: Overnight cultures of E. coli culture were diluted 200 times in LB media to make final volume of 1 ml and treated with different concentrations (100 μM, 10 μM, 1 μM, and 0.1 μM) of centanamycin for three hours at room temperature. The treated E. coli cells were then centrifuged at 10,000 rpm for 1 min, supernatant was removed and the pellet was resuspended in 100 μl of LB and plated on the LB agar plate without any antibiotic. The plates were then incubated at 37° C. for 16 hours. To determine the effect of centanamycin, the number of colonies were counted on each plate.
# First, a culture of E. coli that had been established by an overnight incubation was diluted 200 times in LB media to make final volume to be 1 ml, followed by treatment with different concentrations of centanamycin (100 μM, 10 μM, 1 μM, and 0.1 μM) for three hours at room temperature. The treated cells were then centrifuged at 10,000 rpm for 1 min, supernatant was removed and the pellet was resuspended in 100 μl of LB and plated on LB agar plates without any antibiotic. The plates were then incubated at 37° C. for 16 hours. To determine the effect of centanamycin, the number of colonies on each plate were counted (FIGS. 6A-6B). […] Some of these bacteria were replication-defective and attenuated, making them suitable for use as vaccines.
# [4] = test system: MCMV-Luc; experiment: In vivo analysis of CM treated MCMV-Luc injected into mice (IVIS); conditions: 1×10^5 pfu intraperitoneally
# Description: In vivo experiments: To check the efficacy of CM in the animal model, mouse cytomegalovirus expressing the luciferase gene (MCMVLuc) was used. […] The 25×10^6 PFU/ml of MCMVLuc viruses were treated with 10 μM, 1.0 μM, and 0.1 μM of CM for two hours at room temperature. The MCMVLuc viruses were washed with RPMI to remove CM and suspended in 1 ml of incomplete RPMI. Thereafter, 200 μl of the CM treated MCMVLuc was injected into five mice per group. The luciferase activity was measured every other day using bioluminescence assay by an in vivo imaging system (IVIS). Briefly, the mice were anesthetized using isoflurane and injected with the luciferin substrate. The injected mice were incubated at RT for five minutes and luciferase activity was determined using IVIS. In control experiments, the MCMVLuc viruses were treated with PET only and followed in a similar way as described above.
# The MCMV-Luc virus was purified using a sucrose gradient and titrated. Following purification, 5×10^5 pfu of MCMV-Luc was treated with 10 μM, 1 μM and 0.1 μM of CM for 2 hours at RT. Thereafter, treated 1×10^5 pfu were injected intraperitoneally into five mice for each concentration. […] During this attenuated infection, the mouse immune system had sufficient time to recognize the virus as a foreign antigen and generate antibodies specific for the virus. Moreover, since the attenuated MCMV-Luc was whole viral particles, they contained all possible antigens relevant to priming a protective humeral response. As expected, the MCMV-Luc viral particles that were not treated with CM treatment replicated rapidly in the host mice, as observed by IVIS imaging in FIG. 4B.
# [5] = test system: VZV-Luc; experiment: Cell-free VZV-Luc growth curve in ARPE-19 cells after CM treatment; format: cell-based, varicella zoster virus; conditions: for VZV-Luc growth and spread: two hours at RT, ARPE-19 cells
# Description: Cell-free Varicella-zoster virus (VZV) treatment with the CM: VZV is a cell-associated virus. The efficacy of CM on VZV was checked using growth curve analysis. VZV-GFP-Luc was used to check the effect of CM on the virus. The ARPE-19 cells were seeded in 6-well plate and maintained at 37° C. and 5% CO2. The cell-free virus was treated with different concentration of CM (centanamycin (100 μM, 10 μM, and 0.1 μM) for two hours at RT and washed with three times with cDMEM prior to adding to the cells. The virus load in the infected cells was determined by adding luciferin substrate and measuring relative luciferase units every 24 hours of post-infection. The control included the cells infected with the virus without CM treatment. Viability of infected cells was quantified using the Cell Counting Kit-8 (Sigma# 96992) according to the manufacturers protocol.
# Subsequent studies then evaluated the effect of CM treatment on the replication and growth of human alphaherpesvirus-3, also known as varicella zoster virus (VZV), under in vitro conditions in human epithelial ARPE-19 cells. The VZV is a highly cell associated virus and it is transmitted by cell-cell spread. The cell-free, luciferase-expressing VZV-Luc was treated with different concentration of CM (100 μM, 10 μM, 1.0 μM, and 0.1 μM) for two hours at RT. After two hours, the virus was added to the ARPE-19 cells. […] As compared to the CMV which can be attenuated with 1 μM CM, VZV is attenuated with 10 μM CM and this is because VZV is a cell associated virus and CM needs to cross the cell membrane to bind the virus and completely attenuates the VZV.
compound,measurement,setting,value
"COc1cc2cc(C(=O)Nc3cc(N)c4ccccc4c3CCCl)[nH]c2c(OC)c1OC [CM, centanamycin]",ToledoLuc infection and replication (luciferase activity),[1]; virus treated with 0.01 μM-0.001 μM CM,allows the virus to grow and replicate in the infected cells
same,ToledoLuc infection and replication (luciferase activity),"[1]; virus treated with 0.1 μM CM, 2 hours at RT",allow the virus to infect the cells but did not replicate
same,ToledoLuc infection and replication (luciferase activity),"[1]; virus treated with 1 μM CM, 2 hours at RT, MRC5 cells, 9 days post-infection",did not grow and was replication-defective
same,ToledoLuc infection and replication (luciferase activity),"[1]; virus treated with 10 μM CM, 2 hours at RT, MRC5 cells",neither replicate nor infects the cells
same,ToledoLuc infection and replication (luciferase activity),"[1]; virus treated with 100 μM CM, 2 hours at RT, MRC5 cells",neither replicate nor infects the cells
same,AD169-GFP infection and replication (GFP fluorescence),[2]; virus treated with 1 μM CM,detected in the infected cells but did not replicate
same,AD169-GFP infection and replication (GFP fluorescence),[2]; virus treated with 10 μM CM,not able to infect the cells
same,AD169-GFP infection and replication (GFP fluorescence),[2]; virus treated with 100 μM CM,not detected in the infected cells
same,E. coli colonies on LB agar plate after 16 hours,[3]; 0.1 μM,reduce the number of bacterial colonies on the agar plate in a dose dependent manner
same,E. coli colonies on LB agar plate after 16 hours,[3]; 1 μM,reduce the number of bacterial colonies on the agar plate in a dose dependent manner
same,E. coli colonies on LB agar plate after 16 hours,[3]; 10 μM,reduce the number of bacterial colonies on the agar plate in a dose dependent manner
same,E. coli colonies on LB agar plate after 16 hours,[3]; 100 μM,did not grow on the LB agar plate
same,MCMV-Luc infection and replication in mice (IVIS),[4]; virus treated with 0.1 μM CM,able to infect the mice but did not replicate further from the site of infection
same,MCMV-Luc infection and replication in mice (IVIS),[4]; virus treated with 1 μM CM,able to infect the mice but did not replicate further from the site of infection
same,MCMV-Luc infection and replication in mice (IVIS),[4]; virus treated with 10 μM CM,did not infect the mice
same,CM concentration that attenuates VZV,[5],10 µM
same,VZV-Luc growth and spread,[5]; cell-free virus treated with 0.1 μM CM,infect as well as spread to the adjacent cells but with reduced growth
same,VZV-Luc growth and spread,[5]; cell-free virus treated with 1.0 μM CM,infect as well as spread to the adjacent cells but with reduced growth
same,VZV-Luc growth and spread,[5]; cell-free virus treated with 10.0 μM CM,allowed the virus to infect the cells but not to spread to the adjacent cells
same,VZV-Luc growth and spread,[5]; cell-free virus treated with 100 μM CM,completely inhibit the growth as well as replication
